Measured values taken from patent US12422437B2, “Methods of screening for condensate-associated specificity and uses thereof” (Dewpoint Therapeutics, Inc., priority 2019, dated 2025).

Key:
Assay type in all cases: cell-based, human
[1] = test system: stress granules (FUS, eIF3, G3BP1) in HeLa Kyoto, HeLa BAC FUS-GFP and iPS FUS-GFP cells; test: Screen for compounds altering FUS, eIF3 and G3BP1 levels in stress granules of arsenate-stressed cells (Example 1); conditions: compound 1 μM, 5 μM or 25 μM for one hour, then 2 mM Potassium Arsenate 1 hour; confocal fluorescence imaging; FIGS. 1-4
Description: Stress granules are condensates that form in the cytoplasm of cells under stress. Multiple proteins are known to be concentrated in stress granules, including FUS, eukaryotic initiation factor 3 (eIF3), and G3BP1. FUS is involved in pre-mRNA maturation, and various mutations in FUS have been associated with ALS. Although FUS is found in stress granules, it is not believed to be critical for formation of stress granules. Like FUS, eIF3 is also not believed to be critical for formation of stress granules. As the name indicates, eIF3 is a eukaryotic initiation factor, but it is also involved in translational recycling. By contrast, G3BP1 is believed to initiate formation of stress granules and is potentially critical to maintaining their structure. G3BP1 is an RNA binding protein and an element of the Ras signaling transduction pathway. These three proteins were tracked within cells to determine if compounds could preferentially exclude one of these proteins from stress granules without dissolving the stress granule.
(§1) Three cell lines (HeLa Kyoto, HeLa comprising a bacterial artificial chromosome (BAC) encoding FUS-GFP, and induced pluripotent stem cells (iPS) expressing FUS-GFP) were separately grown in culture. 1200 compounds from a compound library were exposed individually at concentrations of 1 μM, 5 μM, or 25 μM to one of the cell lines for one hour. For some compounds, this procedure was repeated for one or both of the other cell lines. Cells that were not exposed to the compounds (DMSO-only vehicle treatment) were used as controls. The cells were then exposed to arsenate stress for 1 hour to stimulate the formation of stress granules, using a final concentration of 2 mM Potassium Arsenate (Sigma A6631, diluted in PBS).
(§2) After stress treatment, the cells were fixed with a final concentration of 3.7% Formaldehyde (FA) for 15 minutes at room temperature. Subsequently, cells were washed using a plate washer, permeabilized (10 min at RT using 0.1% Triton X/PBS) and blocked (30 min with 0.2% Fish skin gelatin/PBS). For cells expressing FUS-GFP, GFP fluorescence was observed directly. For the other protein markers of interest a combination of anti-FUS (Sigma AMAb90549; 1:500), anti-eIF3 (Santa Cruz sc-137214; 1:500), and anti-G3BP1 (Invitrogen PA5-29455; 1:4000) antibodies and appropriate secondary antibodies (Life Technologies; Alexa 594 and 647) was applied to visualize FUS, eIF3, and G3BP1 protein in the cells.
(§3) A spinning disk confocal microscope was used to acquire images of the samples using confocal fluorescence at 405/488/561/640 nm. 40× air objective lenses were used to capture the images. The gain was set to 1.4 and binning to 1. The exposure times were adjusted to the fluorescence emission intensity specific for each label. Exposure times ranged from 100-300 ms. Appropriate filter settings were used, matching the excitation and emission spectra of the label. Image acquisition was automated, and the resulting data were analyzed using KNIME (Berthold et al., 2008, Data Analysis, Machine Learning and Applications. Studies in Classification, Data Analysis, and Knowledge Organization. Springer, Berlin, Heidelberg) and CellProfiler (Carpenter et al., 2006, Genome Biol 7:R100). Twenty-five imaging parameters were extracted for each image, including marker signal droplet count, area, shape, etc. For each imaging parameter, the Z′ factor for the entire plate was calculated according to the following formula: Z′=1−[3*(SD(pos)+SD(neg))/(Avg(pos)−Avg(neg))] where SD(pos) is the standard deviation of the positive control, SD(neg) is the standard deviation of the negative control, Avg(pos) is the average of the positive control and Avg(neg) is the average of the negative control.
In addition, z-scores were calculated for every test compound using the formula: z=(x−x)/S where x is the mean of the sample, and S is the standard deviation of the sample. […] Results

[2] = test system: stress granules (FUS, eIF3, G3BP1) in HeLa Kyoto, HeLa BAC FUS-GFP and iPS FUS-GFP cells; test: Screen for macromolecule and tissue specificity on stress granules of arsenate-stressed cells (Example 2); conditions: compound 1 μM, 5 μM or 25 μM for one hour, then 2 mM Potassium Arsenate 1 hour; confocal fluorescence imaging; FIGS. 5-10
Experimental: as §1, with “In brief, three” for “Three”, “lines. […]” for “lines.”
as §2
as §3, with “40× (primary screen) and 20× (potency testing)” for “40×”, “Heidelberg),” for “Heidelberg) and”, “7:R100); or, for potency testing, data were analyzed using Harmony (PerkinElmer, Waltham MA) and Vault (Collaborative Drug Discovery, Burlingame CA).” for “7:R100).”
In addition, z-scores were calculated for every test compound using the formula: z=(x−x)/S where x is the mean of the sample, and S is the standard deviation of the sample.

[3] = test system: stress granules of stressed HeLa cells carrying BAC FUS-GFP; test: Dose-response / potency testing for FUS, eIF3 and G3BP1 in stress granules (FIG. 11); conditions: 0.0021-30 μM, number of cytoplasmic drops per cell, four parameter logistic fit
Description: FIG. 11 is a plot of dose-response curves for FUS, eIF3, and G3BP1 in stress granules of stressed HeLa cells carrying BAC FUS-GFP treated with YM155.
The methods used in this example were similar to those discussed in Example 1. In brief, three cell lines (HeLa Kyoto, HeLa comprising a bacterial artificial chromosome (BAC) encoding FUS-GFP, and induced pluripotent stem cells (iPS) expressing FUS-GFP) were separately grown in culture. 1200 compounds from a compound library were exposed individually at concentrations of 1 μM, 5 μM, or 25 μM to one of the cell lines for one hour. For some compounds, this procedure was repeated for one or both of the other cell lines. […]
A spinning disk confocal microscope was used to acquire images of the samples using confocal fluorescence at 405/488/561/640 nm. […] The exposure times were adjusted to the fluorescence emission intensity specific for each label. […] Image acquisition was automated, and the resulting data were analyzed using KNIME (Berthold et al., 2008, Data Analysis, Machine Learning and Applications. Studies in Classification, Data Analysis, and Knowledge Organization. Springer, Berlin, Heidelberg), CellProfiler (Carpenter et al., 2006, Genome Biol 7:R100); or, for potency testing, data were analyzed using Harmony (PerkinElmer, Waltham MA) and Vault (Collaborative Drug Discovery, Burlingame CA). […]

Row | SMILES | Selective and Non-Selective Condensate Disrupters (selectivity of exclusion of FUS, eIF3, G3BP1 from stress granules) [1] | Selectivity (Selective and Non-Selective Condensate Disrupters) [2] | potency (similar to IC50) for exclusion of a specific protein from stress granules relative to others [3]
1 | COc1cc(N2CCC(N)CC2)ccc1Nc1ncc(Cl)c(-c2c[nH]c3ccccc23)n1 [AZD3463] | FUS-selective | – | –
2 | COc1cc(CCc2cc(NC(=O)c3ccc(N4C[C@@H](C)N[C@@H](C)C4)cc3)n[nH]2)cc(OC)c1 [AZD4547] | Non-selective | – | –
3 | CNC(=O)CN1CCC(Oc2cc3c(Nc4cccc(Cl)c4F)ncnc3cc2OC)CC1 [AZD8931] | eIF3-selective | – | –
4 | CC1(C)CCC2=C(O1)c1ccccc1C(=O)C2=O [Beta-Lapachone] | eIF3-selective | eIF3-selective | –
5 | Cn1cc(C2=C(c3cn(CCCSC(=N)N)c4ccccc34)C(=O)NC2=O)c2ccccc21 [Bisindolylmaleimide IX] | – | eIF3-selective | –
6 | C[C@H]1CCC/C=C/[C@@H]2C[C@H](O)C[C@H]2[C@H](O)/C=C/C(=O)O1 [Brefeldin A] | FUS-selective | – | –
7 | COc1cc2c(Oc3ccc4[nH]c(C)cc4c3F)ncnc2cc1OCCCN1CCCC1 [Cediranib] | – | eIF3 and FUS- selective | –
8 | Cc1cc2cc3ccc(N(C)C)cc3nc2cc1N [Coriphosphine O] | – | FUS-selective | –
9 | O=C(O)CCc1ccc(NCc2cccc(Oc3ccccc3)c2)cc1 [GW9508] | FUS-selective | – | –
10 | O=C(c1ccc(F)cc1)C1CCN(CCn2c(=O)[nH]c3ccccc3c2=O)CC1 [Ketanserin] | FUS-selective | – | –
11 | NC(=O)CCCCC1CCSS1 (stereo not drawn) [Lipoamide] | Non-selective | Non-selective | –
12 | Cc1ccc(NC(=O)c2ccc(CN3CCN(C)CC3)cc2)cc1Nc1nc(-c2cccnc2)cs1 [Masitinib] | – | FUS protein and iPSC cell selective | –
13 | COc1ncc(-c2ccc3nccc(-c4ccnnc4)c3c2)cc1NS(=O)(=O)c1ccc(F)cc1F [Omipalisib] | Non-selective | – | –
14 | COc1ccc(-c2cc3c(C)nc(N)nc3n(C3CCC(OCCO)CC3)c2=O)cn1 (stereo not drawn) [PF-04691502] | – | Non-selective | –
15 | Cc1cnc(Nc2ccc(N3CCN(C)CC3)cc2)nc1Nc1cccc(S(=O)(=O)NC(C)(C)C)c1 [TG101209] | Non-selective | Non-selective | –
16 | COCCn1c2c([n+](Cc3cnccn3)c1C)C(=O)c1ccccc1C2=O.[Br-] [YM155 (Sepantronium Bromide), Sepantronium Bromide] | eIF3-selective | eIF3-selective | exclusion of eIF3 at lower concentration of compound relative to FUS and G3BP1
